Results published in a melting point compilation (Tetko et al.; mined from patent text by program, amines drawn as free bases though some values may be those of a salt).

| melting point [°C] | Compound |
| --- | --- |
| 136 to 138 | CN(C)C(=O)Nc1ccc(S(=O)(=O)CCc2ccccc2)c(Cl)c1 |
| 86 to 88 | Cn1cc(C(=O)C(C)(C)C)c(=O)c(-c2cccc(C(F)(F)F)c2)c1 |
| 148 | COc1ccc(Sc2nc(-c3ccc(OC)cc3)c(-c3ccc(OC)cc3)[nH]2)cc1 |
| > 260 | Cn1cncc1C(O)(c1ccc(Cl)cc1)c1ccc2c(c1)c(-c1cccs1)cc(=O)n2C (stereo unspecified) |
| 93 to 94 | CCOC(=O)CCCCc1oc(-n2ccnc2C)nc1-c1ccc(Cl)cc1 |
| 120 to 130 | c1cc(OCCCCc2nnn[nH]2)cc(OCc2ccc3ccccc3n2)c1 |
| 90 to 92 | CONS(=O)(=O)c1cccc(C)c1 |
| 96 to 98 | CCCCCCCC(=O)N(C)Cc1cccc(-c2ccc(C=CC(=O)O)o2)c1 |
| 343 to 345 | COc1cc(OC)c(-c2ccc(O)c(C34CC5CC(CC(C5)C3)C4)c2)cc1C=C1SC(C2CCNC2)=NC1=O (stereo unspecified) |
| 106 | O=C1CCCC(=O)C1C(=O)c1ccc(C(F)(F)F)c(N2CCSCC2)n1 |
| 96 to 98 | O=Cc1c(Cl)ccc(C2OCCO2)c1Cl |
| 207 to 208 | O=c1cc(S)oc2ccccc12 |
| 189 to 190 | O=C(CCCOc1cccc(CNC(=O)c2nc3ccccc3c(=O)[nH]2)c1)Nc1nc[nH]n1 |
| > 245 | N#Cc1cnc2sc(-c3ccccc3)cc2c1NCCc1c[nH]cn1 |
| 213 to 215 | O=C(O)C1=C(Sc2ccccc2)CC2CC(=O)C12 (stereo unspecified) |
| 210 to 213 | CCN(C=O)C1CCC(CNc2nc3c(s2)CCOc2ccccc2-3)CC1 (stereo unspecified) |
| 109 to 110 | CCOC(=O)Cn1c(=S)c2ccccc2n(Cc2ccc(Br)cc2F)c1=O |
| 38 to 40 | ICC1COc2ccccc2O1 (stereo unspecified) |
| 159 to 160 | CC1Cc2ccccc2C(C(S)(C#N)C(=O)O)=N1 (stereo unspecified) |
| 143 to 145 | C1=CC2=c3ccccc3=NC2=C1 |
| 224 to 225 | O=C(O)CCc1cccc(-c2nc(=O)c3ccc(Cl)cc3s2)n1 |
| 288 to 292 | N=C(N)c1ccc(-c2ccc(-n3cc(CCC(=O)O)c4ccccc43)nn2)cc1 |
| 87 | COC(=O)c1cccnc1C(=O)CC(=O)c1ccccc1 |
| 70 to 71 | COc1c(Cl)ncnc1OCCc1ccc(Cl)cc1 |
| 184 to 186 | O=C1CCC(c2ccccc2)c2cc(Cl)ccc2N1 (stereo unspecified) |

| melting point [°C] | Compound |
| --- | --- |
| 210 to 211 | COc1ccc(NS(=O)(=O)c2ccc(N3CCNC3=O)cc2)cc1 |
| 184 to 187 | CNCCOc1ccc(C2=C(c3ccccc3)CCCc3cc(O)ccc32)cc1 |
| 100 | CON=C1C(C)(C)c2cc3c(cc2C1(C)C)N(SCc1nccc(OC)c1C)CN3 |
| 43 to 45 | Clc1nsnc1N1CCOCC1 |
| 139 to 142 | CC1(COC(=O)c2ccccc2)COC(CBr)(c2ccc(Cl)cc2Cl)OC1 (stereo unspecified) |
| 141 to 143 | CS(=O)(=O)N[C@@H]1CCCC[C@H]1Nc1nc(Nc2ccc3c(c2)CNCCS3)ncc1Cl |
| 136 to 140 | CNC(=S)NCCSCc1csc(N)n1 |
| 86.5 to 88 | CC(=O)OCc1ccccc1C(=O)C(N)=O |
| 274 to 276 | O=C1c2ccc3c4cccc5cccc(c6ccc(c2c36)C(=O)N1CCCCCO)c54 |
| 215 to 217 | CC(C)CC(CO)NC(=O)C(Cc1c[nH]cn1)NC(=O)C(Cc1cccc2ccccc12)NC(=O)COc1cccc2ccccc12 (stereo unspecified) |
| 162 to 164 | Cc1ccc(-c2cc(N3CCCC3)c(C#N)c3c2-c2ccccc2C3=O)cc1 |
| 181 to 183 | CC(=NC(C#N)=C(N)C#N)c1ccccc1O |
| 213 to 216 | CCCc1cc(N2CCC(NCC(O)c3cnc4ccccc4c3)CC2)nc2sc(C(N)=O)c(N)c12 (stereo unspecified) |
| 90 to 91 | O=C(NCCCCC1CCSS1)N1CCCCC1 (stereo unspecified) |
| 182 | Nc1cc(=O)n(Cc2ccc([N+](=O)[O-])cc2)[nH]1 |
| 160 to 161 | O=Cc1csc(N(c2ccccc2)c2ccccc2)n1 |
| 240 to 244 | Cc1c(Cc2ccc([N+](=O)[O-])cc2)c(=O)oc2cc(OCc3nnn[nH]3)cc(OCc3nnn[nH]3)c12 |
| 69 to 72 | O=C(NCCCCCCO)OC1CCN(C(=O)Oc2ccc(Oc3ccccc3)cc2)CC1 |
| 248 to 250 | CCCn1c(=O)c2[nH]c(/C=C/c3cc(OC)c(OC)cc3Br)nc2n(CCC)c1=O |
| 139 to 140 | CC(=O)c1cc(N(C)C)ccc1NC(=O)c1ccc(OCc2ccccc2)cc1 |
| 226 to 232 | Cn1ncnc1-c1cc(S(C)(=O)=O)c2[nH]c(=O)ccc2c1 |
| 254 | CCCC1=NN(c2ccc(S(=O)(=O)NC(C)(C)C)cc2)C(=O)C1=CNc1ccccc1OCC |
| 70 to 72 | Cc1cc(Oc2cccc(C(F)(F)F)c2)nn1C(=O)Nc1ccc(F)cc1 |
| 122 to 124 | O=c1c2ccccc2oc2c(C3CCCCC3)cccc12 |
| 56 to 57 | COc1ccc(C(C)=O)cc1C(F)(F)F |

| melting point [°C] | Compound |
| --- | --- |
| 82 to 85 | C[Si](C)(C)OC(Cn1ccnc1)(Cn1cncn1)c1ccc(Cl)cc1Cl (stereo unspecified) |
| 95 to 96 | Cc1ccc(Oc2ccc(-n3cccc3)cc2)c(O)c1 |
| 132 to 136 | CCC1(C)CC(O)C2(C)CCC3c4ccc(O)cc4CCC3C12 (stereo unspecified) |
| 108 | CCN=C(Cc1ccccc1)N1CC2C(=O)CCC(c3ccccc3)(c3ccccc3)C2C1 (stereo unspecified) |
| 107 to 109 | CC(C)(C)OC(=O)Nc1ccc(-c2cccnc2)cc1[N+](=O)[O-] |
| 176 to 177 | CC(C)C(C)CCC(C)C1CC(=O)C2=C3C(=O)CC4CC(OC(=O)c5ccccc5)CCC4(C)C3CCC21C (stereo unspecified) |
| 141 to 145 | CCCc1nc(C(C)(O)CC)c(C#N)n1Cc1ccc(-c2ccccc2-c2nnn[nH]2)cc1 (stereo unspecified) |
| 138 to 139 | COc1cc(OC)cc(C(NCC(=O)Nc2c(C(C)C)cccc2C(C)C)c2ccccc2C)c1 (stereo unspecified) |
| 158 to 160 | Cc1cc2cc(CN3CCCC3)cnc2cc1NC(=O)c1ccc(-c2ccc(F)cc2F)cc1 |
| 112 to 113 | COc1c(O)c(C)c2c(c1OC)OC(C)(CN1CCC(c3ccccc3)CC1)C2 (stereo unspecified) |
| 176 to 181 | CN1CCN(CCCNc2ncc3cc(-c4c(Cl)cccc4Cl)c(NC(=O)Nc4ccc(Cl)cc4)nc3n2)CC1 |
| 72 | CC(C)(C)OC(=O)CS |
| 170 to 183 | C#CCNC(=O)NC1CCC(=O)c2sccc21 (stereo unspecified) |
| 168 to 170 | Cc1ccc2c(c1)C(C(=O)O)c1cc(Br)ccc1CO2 (stereo unspecified) |
| 80 to 82 | CCCc1c(OCCCC(=O)NCCCCc2cccnc2)ccc(C(C)=O)c1O |
| 143 to 146 | COc1c(C(=O)O)nc(-c2ccc(Cl)c(OC)c2F)c(F)c1N |
| 85 to 87 | CCCc1c(OCCCCCCc2cccc(OCCCC(C)(C)C(=O)O)c2CCC(=O)O)ccc2c1OCCC2=O |
| 78 to 80 | Cn1ncc(NCCN(CCOc2cccc3c2OCCO3)Cc2ccccc2)c(Cl)c1=O |
| 171 to 175 | CC(=O)Oc1ccc2c(c1)C(=O)CC1C2CCC2(C)C(OC(C)=O)CCC12 (stereo unspecified) |
| 91 | CN1CCN(NS(=O)(=O)c2cc([N+](=O)[O-])c(Cl)s2)CC1 |
| 144 | COc1cc(NC(=O)OC(C)(C)C)c(N)cc1-c1cc(F)ccc1F |
| 78 | CCC(O)c1ccc(-c2cccc(COc3ccc(CO)c(CO)c3)c2)c(C)c1 (stereo unspecified) |
| 139 to 143 | CCCc1c(C(=O)OCC)c2c3c(ccc2n1C)OC1c2ccc(SC)cc2CCN1C3 (stereo unspecified) |
| 137 to 139 | O=C1CNCCN1c1cccc([N+](=O)[O-])c1 |
| 69 to 72 | CCOC(=O)c1cc2cccc(OC)c2[nH]1 |

| melting point [°C] | Compound |
| --- | --- |
| 228 to 229 | O=C(Nc1c(C(O)(C(F)(F)F)C(F)(F)F)ccc2ccccc12)c1ccco1 |
| 75 to 79 | OCCNCCCCCCNCCO |
| 162 | CCCC(=NOCC)C1=C(O)CC(c2c(OC)nc(C)c3c2CCCC3=O)CC1=O (stereo unspecified) |
| 253 | Nc1ccc(-c2noc(-c3cnn4c(C(F)(F)F)cc(-c5ccc(Cl)cc5)nc34)n2)cn1 |
| 167 to 168 | COc1cccc2c1CC(NC(=O)C(C)C)CC2 (stereo unspecified) |
| 141 to 143 | COC(Cc1ccc(OCCc2nc(C(C)(C)C)oc2C)c2ccccc12)C(=O)O (stereo unspecified) |
| 56 to 58 | Cn1nc(C(F)(F)F)cc1Oc1cccc(Cl)n1 |
| 110 to 111 | Nc1cccc(N)c1Oc1ccccc1 |
| 59 | NCc1cc(-c2ccc(C(F)(F)F)cc2)no1 |
| 123 to 126 | CC(=O)SCC(C)NS(=O)(=O)c1c(C)cc(C)cc1C (stereo unspecified) |
| 236 to 238 | Cc1cc(C(=O)NCCCCc2ccc(-c3ccc(=O)[nH]n3)cc2)on1 |
| 159 to 160 | COc1cc(CCN2CCC[C@H](C(C#N)(c3ccccc3)c3ccccc3)C2)ccc1O |
| 121 to 123 | CN(C(=O)c1ccc(Cn2cnc3cnccc32)cc1)C1CCCCC1 |
| > 300 | CC(=O)c1ccc(-c2cnn3c(O)ncnc23)cc1 |
| 258 to 259 | Cc1cccc(C(=O)O)c1Nc1ccccc1C(=O)O |
| 177 to 178 | Cc1ccc(C=C(C=O)C(C=O)=Cc2ccc(C)cc2)cc1 |
| 128 to 129 | O=C(C=Cc1cncc(F)c1)NCCCCN1CCN(C(c2ccccc2)c2ccccc2)CC1 |
| 115 to 116 | COc1ccc(C(C#N)C(=O)Cc2ccccc2)cc1 (stereo unspecified) |
| 261 to 264 | CCCCn1nnnc1-c1c(O)ccc(-c2cccc(C(=O)O)c2)c1O |
| 138 to 139 | COc1ccc(S(N)(=O)=O)cc1CC(C)=O |
| 220 to 221 | CCOC(=O)c1cn(C2CC2)c2c(C)c(F)c(F)cc2c1=O |
| 139 to 141 | CCn1c(C)c(C(C)=O)c(N=Cc2ccccc2)c1-c1ccccc1 |
| 224 to 225 | Nc1cc(Oc2ccc3c(C(=O)Nc4ccc(F)c(C(F)(F)F)c4)cccc3c2)ncn1 |

| Compound | melting point [°C] |
| --- | --- |
| CC[C@@]1(O)C(=O)OCc2c1cc1n(c2=O)Cc2c-1nc1ccc(Cl)c3c1c2C(NC(C)=O)CN3 (stereo partly specified) | 250 to 270 |
| CN1CCN(CC(=O)C2CC3c4cccc5[nH]cc(c45)CC3N(C)C2)CC1 (stereo unspecified) | 198 to 202 |
| CC(NCC(O)c1cc(Cl)c(N)c(Cl)c1)C1CCCCC1 (stereo unspecified) | 106 to 108 |
